Target: T1, B16F10 cellular tyrosinase (Mus musculus, UniProt P11344)
T1 construct: the anti-tyrosinase effects of these derivatives were investigated using B16F10 cells; host or cells: B16F10 murine melanoma cells
T1 sequence (P11344 19-533): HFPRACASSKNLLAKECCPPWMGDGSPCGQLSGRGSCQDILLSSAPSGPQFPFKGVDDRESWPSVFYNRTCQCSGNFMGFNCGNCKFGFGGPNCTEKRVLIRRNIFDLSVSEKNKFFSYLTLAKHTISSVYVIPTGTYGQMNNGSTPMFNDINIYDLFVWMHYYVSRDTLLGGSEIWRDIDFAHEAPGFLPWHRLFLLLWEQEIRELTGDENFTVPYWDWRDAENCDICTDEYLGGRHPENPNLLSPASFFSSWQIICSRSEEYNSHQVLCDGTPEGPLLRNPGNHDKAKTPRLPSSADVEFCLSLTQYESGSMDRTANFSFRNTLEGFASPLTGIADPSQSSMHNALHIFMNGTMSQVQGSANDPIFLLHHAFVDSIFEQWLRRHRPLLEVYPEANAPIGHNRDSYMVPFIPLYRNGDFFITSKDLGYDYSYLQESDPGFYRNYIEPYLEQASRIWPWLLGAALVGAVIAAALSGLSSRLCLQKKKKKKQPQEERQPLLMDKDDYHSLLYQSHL
Experiment: Cellular anti-tyrosinase activity assay in IBMX/α-MSH-stimulated cells
Format: cell-based, murine
Settings: 72 h; for cellular tyrosinase inhibitory activity: IBMX + α-MSH; for effect on cellular tyrosinase activity enhanced by stimulators: B16F10, 5, 10, 20 µM, IBMX 200 µM + α-MSH 1 µM
Method: To examine the origin of the anti-melanogenic effects of (Z)-BPT derivatives 1 and 2, the anti-tyrosinase effects of these derivatives were investigated using B16F10 cells. […] After 72 h of incubation, the effects of 1 and 2 on cellular tyrosinase activity were analyzed.
Briefly, B16F10 melanoma cells were seeded in a 6-well plate at a density of 1 × 10^5 cells/well and allowed to adhere to the bottom of each well under identical conditions to the cell culture. […] After incubation for 1 h, the tyrosinase activity of the cells was increased by treatment with 200 µM IBMX and 1 µM α-MSH. The cells were incubated for 72 h under identical conditions to cell culture before being rinsed twice with PBS, exposed to a 100 µL lysis buffer solution consisting of 90 µL phosphate buffer (50 mM) at pH 6.5, 5 µL PMSF (2 mM), and 5 µL Triton X-100 (20%), and then incubated for 30 min at −80 °C. The cell lysates were placed into microcentrifuge tubes after defrosting and they were centrifuged at 12,000 rpm at 4 °C for 30 min. The supernatants (80 µL) of the lysates were combined with 20 µL of 10 mM L-DOPA in a 96-well plate. Using a microplate reader used for the melanin content assay, the mixture’s absorbances were measured every 10 min for 1 h at 37 °C and 492 nm. Each experiment was performed independently in triplicates.
Figure 8 Anti-tyrosinase activities of (Z)-BPT derivatives 1 and 2 in B16F10 cells. […] (A) Derivative 1 and (B) derivative 2. Data are presented as the mean ± standard error of the mean. ^### p < 0.001; * p < 0.05, ** p < 0.01, and *** p < 0.001.

Row | SMILES | cellular tyrosinase inhibitory activity (B16F10, 20 µM) | effect on cellular tyrosinase activity enhanced by stimulators | cellular tyrosinase inhibitory activity (B16F10, 5 µM)
1 | O=C1N=C(c2ccccc2)S/C1=C\c1ccc(O)cc1 [Compound 1, (Z)-5-(4-Hydroxybenzylidene)-2-phenylthiazol-4(5H)-one] | stronger inhibitory activity than kojic acid | dose-dependently and significantly decreased | 
2 | O=C1N=C(c2ccccc2)S/C1=C\c1ccc(O)cc1O [Compound 2, (Z)-5-(2,4-Dihydroxybenzylidene)-2-phenylthiazol-4(5H)-one] | reduced the cellular tyrosinase activity to the levels observed in the untreated control | dose-dependently and significantly decreased | comparable to that of 20 µM kojic acid
